Where two headings read alike, the source gives them in different places.
Experiments:
[1] = Pharmacokinetic assay in Balb/c mice (plasma and brain tissue); assay type: in vivo; settings: mouse, po, 5 mg/kg p.o., male Balb/c mice; for AUC(0-t): read-out: Area under curve AUC0-t; for AUC(0-inf): read-out: Area under curve AUC0-∞; for half-life: read-out: Half-life t1/2 (converted); for MRT: read-out: Mean residence time MRT; for Tmax: read-out: Peak time tmax; for Cmax: read-out: Plasma concentration Cmax
Experimental: Balb/c mice were used as test animals. The pharmacokinetic behavior in mice (plasma and brain tissue) of the compounds of Examples 2, 3, 5, 6, 9, 13, 59, 60, 61, 63, 71-74, 81, 103, 130, 134, 135, 137, 138, 140, 141, 143, 145 and 146 orally administered at a dose of 5 mg/kg was studied.
Each group had 24 male Balb/c mice. After an overnight fast, Balb/c mice were administered p.o. with the test compound at an administration dose of 5 mg/kg and an administration volume of 10 mL/kg.
0.2 ml of blood was taken from the heart before administration and at 0, 0.5, 1, 2, 4, 6, 8 and 24 hours after administration. The samples were stored in EDTA-K2 tubes, and centrifuged for 6 minutes at 4° C., 6000 rpm to separate the plasma. The plasma samples were stored at −80° C. The mice were sacrificed with CO2, and the whole brain tissue was taken out, weighed, placed in a 2 mL centrifuge tube and stored at −80° C.
1) 160 μL of acetonitrile was added to 40 μL of the plasma sample for precipitation, and then the mixture was centrifuged for 5-20 minutes at 3500×g.
2) 90 μL of acetonitrile containing the internal standard (100 ng/mL) was added to 30 μL of the plasma and brain homogenate samples for precipitation, and then the mixture was centrifuged for 8 minutes at 13000 rpm.
3) 70 μL of the treated supernatant was taken and added to 70 μL of water, and mixed by vortex for 10 minutes. 20 μL of the mixture was taken to analyze the concentration of the test compound by LC/MS/MS. LC/MS/MS analysis instrument: AB Sciex API 4000 Qtrap.
• Liquid chromatography condition: Shimadzu LC-20AD pump. • Chromatographic column: Agilent ZORBAX™ XDB-C18 (50×2.1 mm, 3.5 μm) (note: Aglient ZORBAX™ is a kind of column used in the reverse HPLC); • Mobile phase: Eluent A was 0.10% formic acid in water, and Eluent B was acetonitrile. • Flow rate: 0.4 mL/min • Elution time: 0-4.0 minutes, the eluent is as follows:
The main parameters of pharmacokinetics were calculated by WinNonlin 6.1.

[2] = tested on: PTZ-induced epilepsy model in CD-1 mice; assay: In vivo pharmacodynamic test in the PTZ-induced epilepsy model in mice; settings: dose 3 mpk p.o., PTZ 120 mg/kg s.c., 30 min observation
Experimental: The PTZ-induced epilepsy model in CD-1 mice was established, and the antiepileptic effect of the compounds of Example 3, Example 60, Example 61 and Example 74 was evaluated using this model.
50 male CD-1 mice were purchased from Beijing Vital River Laboratory Animal Technology Co. Ltd. The test animals were adapted at the animal room in the third building of Shanghai ChemPartner Co., Ltd for 7 days before the test. The average body weight of the animals on the test day was 32.2±0.2 grams. Feeding environment: 5 animals/cage, room temperature 23±2° C., 12/12 hours of light and dark cycle, free acess to food and water.
4.2.1 Test Equipments • 1 ml sterile disposable syringe with needle (purchased from Zhejiang Kangdelai Medical Devices Co., Ltd.) • Pipette: Eppendorf Research Plus (100-1000 L) • Vortex mixer: Kylin-Bell Vortex 5 • Ultrasonic instrument: JL-360 ultrasonic cleaner • Balance: METTLER TOLEDO™ XS204 precision balance (note: METTLER TOLEDO™ is a kind of balance used in labs and industry) • Balance: METTLER TOLEDO™ XS6002S electronic balance (note: METTLER TOLEDO™ is a kind of balance used in labs and industry) • Plexiglass box: 25 cm length*15 cm width*15 cm height with one opaque side wall, custom made by Suzhou Fengshi Laboratory Animal Equipment Co., Ltd • 3-channel timer: Oregon/Model NO.WB-388. 4.2.2 Test Animal Grouping • 1) Vehicle/PTZ: 0.5% CMC-Na+1% Tween-80 (10 ml/kg, p.o.), administered 0.5 hr before the PTZ administration; PTZ ([…], s.c.), administered before the test; • 2) 3 mg/kg of the compounds of Examples/PTZ: the compounds of Example 3, Example 60, Example 61 and Example 74 (3 mg/kg, 10 ml/kg, p.o.), administered 0.5 hr before the PTZ administration; PTZ ([…], s.c.), administered before the test. 4.3 Experimental Procedures 4.3.1 Solvent Formulation 1) 0.5% CMC-Na+1% Tween-80 (Administration Volume: 10 mL/Kg):
4.4 Adaptation to the Environment
The mice were randomly grouped, marked and weighed; 10 mice per group. The test compound was administered orally at an administration volume of 10 mL/kg 30-60 minutes before the PTZ administration.
PTZ (120 mg/kg) was administrated subcutaneously before the test observation, and this time point was recorded as the observation start point; after the administration of PTZ, the animal was immediately placed in the observation box and observed for 30 minutes, and the followings were recorded: a) the incubation period of the first clonic seizure, b) the incubation period of the first generalized tonic seizure, c) the number of clonic seizures, d) the number of generalized tonic seizures, e) the time when the animal died.
All measurement data were expressed as Mean±SEM, and analysed with Prism 6.0 statistical software.

[3] = tested on: forced-swimming mice; assay: In vivo pharmacodynamic test in the forced swimming model in mice; settings: ICR mice; for Mean (immobility, %): dose 10 mpk p.o., 100*floating time/240 s; for Immobility time during the latter four minutes compared with that of the model group: forced swimming
Experimental: The antidepressant effect of the compound was evaluated by the forced swimming model in mice.
Male ICR mice (25-35 g) were adapted in the test environment for 3 days before the forced swimming test.
According to the test design, the mice were randomly grouped on the day before the test according to body weight, with 12 mice in each group. Before the test, the compounds of each example were administered intragastrically according to the Tmax thereof in the brain in mice pharmacokinetic test as follows: • 1) Model group (0.5% CMC-Na-1% Tween 80 solution, p.o., 10 mL/kg); • 2) Compounds of Example 2, Example 3, Example 5, Example 6, Example 9, Examples 59-63, Examples 71-73, Example 103, Example 135, Example 137, Example 145 and Example 146 (10 mg/kg, p.o., 10 mL/kg); Example 13 and Example 74 (5 mg/kg, p.o., 5 mL/kg).
When being administered, the compounds of each example were suspended in 0.5% CMC-Na+1% Tween 80 solution to the desired concentration.
0.5-1 hour after administration, ICR mice were placed in a forced swimming device (transparent glass drum (water depth 18 cm, water temperature 25-26° C.), one mouse per tank) and forced to swim for 6 minutes. The forced swimming device recorded the floating time of the ICR mice during the entire 6 minutes, and the data of the latter four minutes were used for data analysis. The mice were taken out immediately after the swimming test, wiped dry and put back in their original cages.
Note: The criterion for determining the immobility time is that the mouse stops struggling in water and floats, and there are only slight limb movements to keep the head floating on the water.
3.4 Data Analysis Floating time percentage=100*floating time/240 s.

[4] = target: GABA-A receptor; assay: 35S-TBPS binding assay (GABAA receptor binding ability test); parameters: species or system Sprague-Dawley rat; settings: rat cerebral cortex cell membrane, 5 μM GABA, 2 nM 35S-TBPS; read-out: 35S-TBPS bindng test: IC50 on inhibiting the TBPS binding activity
Summary of the method: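 Rat (male Sprague-Dawley) cortical membranes in PBS were preincubated 5 min at 25° C with compound (from 1 μM, 3-fold, 8 points, 1% DMSO), then 5 μM GABA 5 min, then 2 nM ^35S-TBPS for 20 h at 4° C. Filter-bound counts gave % inhibition against DMSO and 10 μM P026-2 controls; IC50 by 4-parameter fit.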

Compound	AUC(0-t) ([1]; brain tissue)	AUC(0-inf) ([1]; brain tissue)	half-life ([1]; brain tissue)	MRT ([1]; brain tissue)	Tmax ([1]; brain tissue)	Cmax ([1]; brain tissue)	AUC(0-t) ([1]; plasma)	AUC(0-inf) ([1]; plasma)	half-life ([1]; plasma)	MRT ([1]; plasma)	Tmax ([1]; plasma)	Cmax ([1]; plasma)	Mean (immobility, %) [3]	Immobility time during the latter four minutes compared with that of the model group [3]	IC50 [4]	other results
C[C@@H]1C[C@H](C(=O)Cn2nccn2)[C@@]2(C)CC[C@H]3[C@@H](CC[C@@H]4C[C@](C)(O)CC[C@@H]43)[C@H]12 [Example 61, 1-((3R,5R,8R,9R,10S,13S,14S,15R,17S)-3-Hydroxy-3,13,15-trimethylhexadecahydro-1H-cyclopenta[a]phenanthren-17-yl)-2-(2H-1,2,3-triazol-2-yl)ethan-1-one]	657 ng·h/mL	676 ng·h/mL	3.95 h	1.41 h	0.5 h	711 ng/mL	588 ng·h/mL	605 ng·h/mL	3.27 h	1.48 h	0.5 h	525 ng/mL	35.75%	significantly different		Incubation period of the clonic seizure, Mean ± SEM [2]: 841.4 ± 179.8 s; Incubation period of the generalized tonic seizure, Mean [2]: 1497.4 ± 124.3 s; Mortality rate [2]: 40%; Number of clonic seizures, Mean [2]: 1.9 ± 0.4; Number of generalized tonic seizures, Mean [2]: 0.5 ± 0.2; Time when the animal died, Mean [2]: 1573.1 ± 117.9 s
C[C@@]1(O)CC[C@H]2[C@H](CC[C@@H]3[C@@H]2CC[C@@]2(C)[C@H]3[C@H](C3CC3)C[C@@H]2C(=O)Cn2ccc(C#N)n2)C1 [Example 72, 1-(2-((3R,5R,8R,9R,10S,13S,14S,15S,17S)-15-Cyclopropyl-3-hydroxy-3,13-dimethylhexadecahydro-1H-cyclopenta[a]phenanthren-17-yl)-2-oxoethyl)-1H-pyrazole-3-carbonitrile]	2050 ng·h/mL	2240 ng·h/mL	2.12 h	3.17 h	0.5 h	724 ng/mL	2970 ng·h/mL	2970 ng·h/mL	2.79 h	3.71 h	0.5 h	1150 ng/mL	35.74%	significantly different		
C[C@@]1(O)CC[C@H]2[C@H](CC[C@@H]3[C@@H]2CC[C@@]2(C)[C@H]3[C@H](C3CC3)C[C@@H]2C(=O)Cn2nccn2)C1 [Example 73, 1-((3R,5R,8R,9R,10S,13S,14S,15S,17S)-15-Cyclopropyl-3-hydroxy-3,13-dimethylhexadecahydro-1H-cyclopenta[a]phenanthren-17-yl)-2-(2H-1,2,3-triazol-2-yl)ethan-1-one]	1100 ng·h/mL	1120 ng·h/mL	1.31 h	1.91 h	0.5 h	636 ng/mL	2430 ng·h/mL	2480 ng·h/mL	1.4 h	2.06 h	0.5 h	1300 ng/mL	29.57%	significantly different		
CC[C@@H]1C[C@H](C(=O)Cn2nccn2)[C@@]2(C)CC[C@H]3[C@@H](CC[C@@H]4C[C@](C)(O)CC[C@@H]43)[C@H]12 [Example 141, 1-((3R,5R,8R,9R,10S,13S,14S,15R,17S)-15-Ethyl-3-hydroxy-3,13-dimethylhexadecahydro-1H-cyclopenta[a]phenanthren-17-yl)-2-(2H-1,2,3-triazol-2-yl)ethan-1-one]	2150 ng·h/mL	2250 ng·h/mL	1.68 h	2.68 h	0.5 h	1050 ng/mL	3550 ng·h/mL	3630 ng·h/mL	1.35 h	2.55 h	0.5 h	1630 ng/mL			23.9 nM	
C[C@@]1(O)CC[C@H]2[C@H](CC[C@@H]3[C@@H]2CC[C@@]2(C)[C@H]3[C@H](C3CC3)C[C@@H]2C(=O)Cn2nc(C#N)cc2C#N)C1 [Example 143, 1-(2-((3R,5R,8R,9R,10S,13S,14S,15S,17S)-15-Cyclopropyl-3-hydroxy-3,13-dimethylhexadecahydro-1H-cyclopenta[a]phenanthren-17-yl)-2-oxoethyl)-1H-pyrazole-3,5-dicarbonitrile]	8820 ng·h/mL	9220 ng·h/mL	3.95 h	7.81 h	2 h	812 ng/mL	6290 ng·h/mL	6490 ng·h/mL	1.7 h	3.08 h	0.5 h	1650 ng/mL			28.5 nM	

Source: US12139508B2, “Steroid derivative regulators, method for preparing the same, and uses thereof” (JIANGSU HANSOH PHARMACEUTICAL GROUP CO., LTD., priority 2018, dated 2024)
